Laboratory results reported in PubChem BioAssay (NCI).
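Compound exposure: 48 hours, 5 concentrations, 96-well plates. GI50 = concentration required for 50% inhibition of growth. Definition used: TGI = concentration required for complete inhibition of growth.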

What was measured:
Test in all cases: NCI tumour cell line growth inhibition, 48 h
[1] = tested on: HL-60(TB) leukemia
[2] = tested on: BT-549 breast
[3] = tested on: CAKI-1 renal
[4] = tested on: TK-10 renal
[5] = tested on: KM12 colon
[6] = tested on: SF-295 CNS
[7] = tested on: RXF 393 renal
[8] = tested on: NCI-H460 lung
[9] = tested on: OVCAR-5 ovarian
[10] = tested on: HCT-116 colon
[11] = tested on: SNB-19 CNS
[12] = tested on: NCI-H522 lung
[13] = tested on: SN12C renal
[14] = tested on: MDA-MB-435
[15] = tested on: UACC-62 melanoma
[16] = tested on: CCRF-CEM leukemia
[17] = tested on: MDA-MB-231 breast
[18] = tested on: SNB-75 CNS
[19] = tested on: NCI/ADR-RES ovarian
[20] = tested on: SK-MEL-5 melanoma
[21] = tested on: HCC-2998 colon
[22] = tested on: SR leukemia
[23] = tested on: HOP-62 NSCLC
[24] = tested on: A498 renal
[25] = tested on: MDA-MB-468 breast
[26] = tested on: OVCAR-4 ovarian
[27] = tested on: SF-539 CNS
[28] = tested on: SK-MEL-28 melanoma
[29] = tested on: OVCAR-8 ovarian
[30] = tested on: HT29 colon
[31] = tested on: NCI-H226 lung
[32] = tested on: MCF7 breast
[33] = tested on: NCI-H23 lung
[34] = tested on: SF-268 CNS
[35] = tested on: MALME-3M melanoma
[36] = tested on: SW-620 colon
[37] = tested on: ACHN renal
[38] = tested on: EKVX NSCLC
[39] = tested on: 786-0 renal
[40] = tested on: RPMI-8226 leukemia
[41] = tested on: M14 melanoma
[42] = tested on: LOX IMVI melanoma
[43] = tested on: UACC-257 melanoma
[44] = tested on: SK-OV-3 ovarian
[45] = tested on: IGROV1 ovarian
[46] = tested on: U251 CNS
[47] = tested on: OVCAR-3 ovarian
[48] = tested on: MOLT-4 leukemia
[49] = tested on: K-562 leukemia
[50] = tested on: A549 NSCLC
[51] = tested on: HOP-92 NSCLC
[52] = tested on: SK-MEL-2 melanoma
[53] = tested on: DU-145 prostate
[54] = tested on: UO-31 renal
[55] = tested on: COLO 205 colon
[56] = tested on: PC-3 prostate
[57] = tested on: HCT-15 colon
[58] = tested on: T-47D breast

CC(C)N=C([Se])NC(=O)c1ccccc1
GI50 [1]: 2.07 µM | TGI [1]: 5.37 µM | GI50 [2]: 1.61 µM | TGI [2]: 3.55 µM | GI50 [3]: 1.67 µM | TGI [3]: 3.04 µM | GI50 [4]: 1.7 µM | TGI [4]: 3.17 µM | GI50 [5]: 3 µM | TGI [5]: 8.39 µM | GI50 [6]: 1.86 µM | TGI [6]: 5.21 µM | GI50 [7]: 1.88 µM | TGI [7]: 3.68 µM | GI50 [8]: 2.93 µM | TGI [8]: 11.6 µM | GI50 [9]: 1.97 µM | TGI [9]: 3.72 µM | GI50 [10]: 1.88 µM | TGI [10]: 3.49 µM | GI50 [11]: 2.91 µM | TGI [11]: 10.8 µM | GI50 [12]: 1.64 µM | TGI [12]: 3.17 µM | GI50 [13]: 1.82 µM | TGI [13]: 3.29 µM | GI50 [14]: 2.69 µM | TGI [14]: 8.5 µM | GI50 [15]: 1.96 µM | TGI [15]: 4.07 µM | GI50 [16]: 3.05 µM | TGI [16]: 10.8 µM | GI50 [17]: 2.67 µM | TGI [17]: 6.49 µM | GI50 [18]: 1.69 µM | TGI [18]: 3.41 µM | GI50 [19]: 2.12 µM | TGI [19]: 4.89 µM | GI50 [20]: 1.88 µM | TGI [20]: 3.67 µM | GI50 [21]: 1.92 µM | TGI [21]: 3.67 µM | GI50 [22]: 2.06 µM | TGI [22]: 5.23 µM | GI50 [23]: 2.03 µM | TGI [23]: 5.19 µM | GI50 [24]: 2.85 µM | TGI [24]: 8.02 µM | GI50 [25]: 1.72 µM | TGI [25]: 3.61 µM | GI50 [26]: 1.75 µM | TGI [26]: 3.14 µM | GI50 [27]: 1.8 µM | TGI [27]: 3.21 µM | GI50 [28]: 1.94 µM | TGI [28]: 3.62 µM | GI50 [29]: 1.88 µM | TGI [29]: 3.56 µM | GI50 [30]: 2.34 µM | TGI [30]: 5.99 µM | GI50 [31]: 2.11 µM | TGI [31]: 5.94 µM | GI50 [32]: 1.7 µM | TGI [32]: 3.66 µM | GI50 [33]: 1.93 µM | TGI [33]: 4.13 µM | GI50 [34]: 2.9 µM | TGI [34]: 8.27 µM | GI50 [35]: 1.63 µM | TGI [35]: 3.09 µM | GI50 [36]: 2.06 µM | TGI [36]: 4.63 µM | GI50 [37]: 1.92 µM | TGI [37]: 3.41 µM | GI50 [38]: 1.77 µM | TGI [38]: 3.32 µM | GI50 [39]: 1.8 µM | TGI [39]: 3.25 µM | GI50 [40]: 2.64 µM | TGI [40]: 7.83 µM | GI50 [41]: 1.84 µM | TGI [41]: 3.65 µM | GI50 [42]: 1.85 µM | TGI [42]: 3.94 µM | GI50 [43]: 1.92 µM | TGI [43]: 4.06 µM | GI50 [44]: 0.426 µM | TGI [44]: 1.3 µM | GI50 [45]: 1.76 µM | TGI [45]: 3.49 µM | GI50 [46]: 1.86 µM | TGI [46]: 3.51 µM | GI50 [47]: 1.97 µM | TGI [47]: 3.57 µM | GI50 [48]: 2.33 µM | TGI [48]: 6.07 µM | GI50 [49]: 2.76 µM | TGI [49]: 8.45 µM | GI50 [50]: 3.11 µM | TGI [50]: 34.8 µM | GI50 [51]: 1.95 µM | TGI [51]: 4.36 µM | GI50 [52]: 2.08 µM | TGI [52]: 4.88 µM | GI50 [53]: 1.95 µM | TGI [53]: 3.6 µM | GI50 [54]: 1.64 µM | TGI [54]: 3 µM | GI50 [55]: 2.49 µM | TGI [55]: 6.46 µM | GI50 [56]: 2.01 µM | TGI [56]: 4.37 µM | GI50 [57]: 1.85 µM | TGI [57]: 3.63 µM | GI50 [58]: 1.98 µM | TGI [58]: 4.52 µM
